Values of other authors as cited in patent publication US20230024950A1, “METHODS FOR TREATING NEURODEGENERATIVE DISORDERS” (Alzheon, Inc., priority 2019, published 2023).

Tests used:
[1] = not given; remark: listed apart in the source
[2] = target: Aβ oligomers (Homo sapiens, UniProt P05067); settings: in vitro
Aβ oligomers, sequence (P05067 672-713 limits assumed): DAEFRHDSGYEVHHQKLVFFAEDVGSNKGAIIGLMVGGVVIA

SMILES | plasma exposure compared with tramiprosate from the Phase 3 studies (Phase 1b) | pharmacokinetics and oral tolerability compared with tramiprosate (oral) | safety profile ([1]; Phase 3 trials and safety extension study, exposures of up to 2.5 years) | effect on MRI imaging: brain hippocampal volume (hippocampus atrophy) ([1]; Phase 3 trials, mild-to-moderate AD, dose-dependent) | benefit on cognition ([1]; subgroup analysis of APOE4/4 homozygotes, 100 mg BID or 150 mg BID over 78 weeks) | cognitive efficacy ([1]; subset of APOE4 carriers, especially APOE4/4 homozygotes) | formation of Aβ oligomers [2]
CC(C)[C@H](N)C(=O)NCCCS(=O)(=O)O [ALZ-801, valyl-3-amino-1-propanesulfonic acid] | bioequivalence to plasma exposures to tramiprosate | improved pharmacokinetics and oral tolerability over tramiprosate | – | – | – | – | –
NCCCS(=O)(=O)O [Tramiprosate, 3-amino-1-propanesulfonic acid] | – | – | favorable safety profile | slowing the reduction of brain hippocampal volume | positive and clinically meaningful benefit on cognition | positive cognitive efficacy | inhibits the formation of Aβ oligomers in vitro
